Measurements: patent US20150038545A1, “HYDROXYPHENYL PYRROLE COMPOUNDS CONTAINING AN HYDROXAMIC ACID AS HDAC INHIBITORS AND MEDICINAL APPLICATIONS THEREOF” (UNIVERSIDAD DEL PAÍS VASCO, priority 2011, published 2015)

Experiments:
[1] = target: T1, Human HDAC8 (Homo sapiens, UniProt Q9BY41); test: In vitro HDAC8 inhibition, fluorogenic peptide assay; format: biochemical; settings: for IC50: read-out: IC50 (nM) of enzyme activity HDAC8
T1 construct: Full length, MW=42 kDa, expressed in an E. coli expression system; purchased BioMol SE-145; host or cells: E. coli
T1 sequence (Q9BY41 1-377): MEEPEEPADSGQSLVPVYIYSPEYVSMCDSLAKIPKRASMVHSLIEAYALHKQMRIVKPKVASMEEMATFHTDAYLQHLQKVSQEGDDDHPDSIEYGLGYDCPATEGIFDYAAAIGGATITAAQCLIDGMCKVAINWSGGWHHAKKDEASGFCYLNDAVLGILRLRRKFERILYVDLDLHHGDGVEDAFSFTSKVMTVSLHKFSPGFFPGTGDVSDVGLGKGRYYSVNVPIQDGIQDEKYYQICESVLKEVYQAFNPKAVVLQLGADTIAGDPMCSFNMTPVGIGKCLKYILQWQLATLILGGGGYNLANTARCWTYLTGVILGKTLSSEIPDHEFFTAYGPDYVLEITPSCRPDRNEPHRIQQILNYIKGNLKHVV
Protocol: (§1) All HDAC assays were performed using acetylated AMC-labeled peptide substrate: • Substrate for isoforms HDAC1, 2, 3, 4, 5, 6, 7, 9, 10, 11 and HeLa nuclear extract assays: Acetylated fluorogenic peptide from p53 residues 379-382 (RHKKAc) (BioMol. Cat. # KI-104). • Substrate for HDAC8 assays: Acetylated fluorogenic peptide from p53 residues 379-382 (RHKAcKAc) (BioMol. Cat. # KI-178).
(§2) Enzymes: • HDAC1 assay: 75 nM Human HDAC1 (GenBank Accession No. NM_004964): Full length with C-terminal GST tag, MW=79.9 kDa, expressed by baculovirus expression system in Sf9 cells (BioMol. Cat. # SE-456). • HDAC2 assay: 5 nM Human HDAC2 (GenBank Accession No. Q92769): Full length with C-terminal His tag, MW=60 kDa, expressed by baculovirus expression system in Sf9 cells (BioMol. Cat. # SE-500). • HDAC3 assay: 2.3 nM Human HDAC3/NcoR2 (GenBank Accession No. NM_003883 for HDAC3, GenBank Accession No.NM_006312 for NcoR2): Complex of human HDAC3, full length with C-terminal His tag, MW=49.7 kDa, and human NCOR2, N-terminal GST tag, MW=39 kDa, co-expressed in baculovirus expression system (BioMol. Cat. # SE-507). • HDAC4 assay: 266 nM Human HDAC4 (GenBank Accession No. NM_006037): Amino acids 627-1085 with N-terminal GST tag, MW=75.2 kDa, expressed in baculovirus expression system (BioMol, Hamburg, Germany). • HDAC5 assay: 588 nM Human HDAC5 (GenBank Accession No. NM_001015053): Full length with Nterminal GST tag, MW=150 kDa, expressed by baculovirus expression system in Sf9 cells (BioMol, Hamburg, Germany). • HDAC6 assay: 13 nM Human HDAC6 (GenBank Accession No. BC069243): Full length with N-terminal GST tag, MW=159 kDa, expressed by baculovirus expression system in Sf9 cells (BioMol. Cat. # SE-508). • HDAC7 assay: 962 nM Human HDAC7 (GenBank Accession No. AY302468): Amino acids 518-end with N-terminal GST tag, MW=78 kDa, expressed in baculovirus expression system (BioMol, Hamburg, Germany). • HDAC8 assay: 119 nM Human HDAC8 (GenBank Accession No. NM018486): Full length, MW=42 kDa, expressed in an E. coli expression system (BioMol. Cat. # SE-145). • HDAC9 assay: 986 nM Human HDAC9 (GenBank Accession No. NM178423): Amino acids 604-1066 with C-terminal His tag, MW=50.7 kDa, expressed in baculovirus expression system (BioMol, Hamburg, Germany). • HDAC10 assay: 781 nM Human HDAC10 (GenBank Accession No. NM_032019): Amino acids 1-631 with Nterminal GST tag, MW=96 kDa, expressed by baculovirus expression system in Sf9 cells (BioMol. Cat. # SE-559). • HDAC11 assay: 781 nM Human HDAC11 (GenBank Accession No. NM_BC009676) with N-terminal GST tag, MW=66 kDa, expressed in baculovirus expression system (BioMol. Cat. # SE-560). • HeLaNuclear Extract assay: 25 ng/μl Nuclear Extract from HeLa Cells: Prepared by high salt extraction of HeLa nuclei (human cervical cancer cell line), this extract is a rich source of HDAC activity (BioMol. Cat. # KI-140).
(§3) The reactions were carried out in a 96-well microplate for fluorometry in a 50 μl reaction volume. After the deacetylation reaction, Fluor-de-Lys-Developer (BioMol Cat. # KI-105) was added to each well to digest the deacetylated substrate, thus producing the fluorescent signal. The reaction was allowed to develop for 45 minutes at 30° C. with 5% CO2; then the fluorescent signal was measured with an excitation wavelength at 360 nm and an emission wavelength at 460 nm in a microplate-reading fluorometer (GeminiXS; Molecular Devices, Sunnyvale, Calif.). […] All experiments were performed in triplicate. IC50 was calculated by fitting the experimental data to a dose-response curve. DMSO was used as negative control; Trichostatin A (Biomol Cat. # GR-309) was used as positive control inhibitor.

[2] = target: T2, Human HDAC1 (Homo sapiens, UniProt Q13547); test: In vitro HDAC1 inhibition, fluorogenic peptide assay; format: biochemical; settings: for IC50: read-out: IC50 (nM) of enzyme activity HDAC1
T2 construct: Full length with C-terminal GST tag, MW=79.9 kDa; GST (C); purchased BioMol SE-456; host or cells: Sf9 cells, baculovirus
T2 sequence (Q13547 whole entry): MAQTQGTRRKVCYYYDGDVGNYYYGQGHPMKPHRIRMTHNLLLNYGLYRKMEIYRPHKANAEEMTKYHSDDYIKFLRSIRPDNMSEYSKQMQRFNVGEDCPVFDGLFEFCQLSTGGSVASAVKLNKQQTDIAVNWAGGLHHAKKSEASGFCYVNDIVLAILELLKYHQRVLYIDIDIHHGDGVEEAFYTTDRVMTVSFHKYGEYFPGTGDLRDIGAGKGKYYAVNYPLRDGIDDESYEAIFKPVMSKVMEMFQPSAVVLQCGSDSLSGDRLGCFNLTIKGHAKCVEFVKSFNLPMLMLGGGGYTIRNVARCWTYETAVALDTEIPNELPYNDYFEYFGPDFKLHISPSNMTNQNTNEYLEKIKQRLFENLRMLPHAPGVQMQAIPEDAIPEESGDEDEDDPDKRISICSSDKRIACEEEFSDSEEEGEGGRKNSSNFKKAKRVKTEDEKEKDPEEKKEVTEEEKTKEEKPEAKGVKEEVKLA
Protocol: as §1, §2, §3

[3] = target: T3, Human HDAC3/NcoR2 (Homo sapiens, UniProt O15379); test: In vitro HDAC3 inhibition, fluorogenic peptide assay; format: biochemical; settings: for IC50: read-out: IC50 (nM) of enzyme activity HDAC3
T3 construct: Complex of human HDAC3, full length with C-terminal His tag, MW=49.7 kDa; His (C); purchased BioMol SE-507
T3 sequence (O15379 whole entry): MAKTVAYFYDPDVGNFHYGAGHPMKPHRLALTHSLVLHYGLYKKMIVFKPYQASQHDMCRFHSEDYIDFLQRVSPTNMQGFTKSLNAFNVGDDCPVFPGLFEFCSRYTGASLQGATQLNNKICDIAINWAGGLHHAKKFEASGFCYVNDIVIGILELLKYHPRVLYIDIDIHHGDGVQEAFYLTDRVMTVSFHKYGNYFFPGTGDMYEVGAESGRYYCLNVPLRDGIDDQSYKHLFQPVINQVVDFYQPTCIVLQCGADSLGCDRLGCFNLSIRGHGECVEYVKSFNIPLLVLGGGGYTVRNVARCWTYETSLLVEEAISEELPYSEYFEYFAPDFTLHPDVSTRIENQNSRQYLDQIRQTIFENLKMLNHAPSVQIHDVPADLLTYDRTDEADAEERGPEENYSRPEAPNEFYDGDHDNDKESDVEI
T3 sequence (Q9Y618 395-489 partner limits assumed): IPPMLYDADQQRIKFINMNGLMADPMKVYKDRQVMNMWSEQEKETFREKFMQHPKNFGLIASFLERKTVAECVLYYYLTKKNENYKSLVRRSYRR
Protocol: as §1, §2, §3

[4] = test system: T4, Nuclear Extract from HeLa Cells; test: HeLa nuclear extract HDAC inhibition assay; format: biochemical, Human; settings: HeLa cell line nuclear extract
T4 construct: 25 ng/μl Nuclear Extract from HeLa Cells: Prepared by high salt extraction of HeLa nuclei (human cervical cancer cell line)
Protocol: as §1, §2, §3

[5] = target: T5, Human HDAC2 (Homo sapiens, UniProt Q92769); test: In vitro HDAC2 inhibition, fluorogenic peptide assay; format: biochemical; settings: for IC50: read-out: IC50 (nM) of enzyme activity HDAC2
T5 construct: Full length with C-terminal His tag, MW=60 kDa; His (C); purchased BioMol SE-500; host or cells: Sf9 cells, baculovirus
T5 sequence (Q92769 whole entry): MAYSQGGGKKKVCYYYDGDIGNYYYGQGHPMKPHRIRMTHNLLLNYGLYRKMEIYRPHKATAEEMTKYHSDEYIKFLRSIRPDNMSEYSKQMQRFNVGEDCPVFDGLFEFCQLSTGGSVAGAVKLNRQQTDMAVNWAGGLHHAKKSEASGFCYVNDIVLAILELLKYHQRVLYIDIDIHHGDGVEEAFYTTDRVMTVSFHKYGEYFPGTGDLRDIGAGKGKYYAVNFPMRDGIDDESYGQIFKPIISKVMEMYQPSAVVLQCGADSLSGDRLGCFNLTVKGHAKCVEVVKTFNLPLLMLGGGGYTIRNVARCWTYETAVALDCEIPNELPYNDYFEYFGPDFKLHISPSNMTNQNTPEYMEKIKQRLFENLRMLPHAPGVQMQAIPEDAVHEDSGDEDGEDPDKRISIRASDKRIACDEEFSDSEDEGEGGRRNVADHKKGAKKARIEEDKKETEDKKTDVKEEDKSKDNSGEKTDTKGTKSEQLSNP
Protocol: as §1, §2, §3

SMILES	Selectivity against HDAC6 (IC50 HDACx/IC50 HDAC6) HDAC8 [1]	IC50 [1] [nM]	Selectivity against HDAC6 (IC50 HDACx/IC50 HDAC6) HDAC1 [2]	IC50 [2] [nM]	Selectivity against HDAC6 (IC50 HDACx/IC50 HDAC6) HDAC3 [3]	IC50 [3] [nM]	IC50 [4] [nM]	Selectivity against HDAC6 (IC50 HDACx/IC50 HDAC6) HDAC2 [5]	IC50 [5] [nM]
O=C(CCCCCNC(=O)c1[nH]c(-c2ccccc2)cc1-c1ccc(O)cc1)NO [Example 1, N-(6-(hydroxyamino)-6-oxohexyl)-3-(4-hydroxyphenyl)-5-phenyl-1H-pyrrole-2-carboxamide]	54.8	767	25.3	354	31.2	437	31	81.1	1140
COc1ccc(-c2cc(-c3ccccc3)c(C(=O)NCCCCCC(=O)NO)[nH]2)cc1 [Compound B, N-[6-(hydroxyamino)-6-oxohexyl]-5-(4-methoxyphenyl)-3-phenyl-1H-pyrrole-2-carboxamide, reference compound]	5.4	174	8.6	276	13.0	415	27	28.7	918
COc1ccc(-c2cc(-c3ccccc3)[nH]c2C(=O)NCCCCCC(=O)NO)cc1 [Compound A, N-[6-(hydroxyamino)-6-oxohexyl]-3-(4-methoxyphenyl)-5-phenyl-1H-pyrrole-2-carboxamide, reference compound]	9.6	192	23.2	464	28.6	572	61	64.7	1290
O=C(CCCCCNC(=O)c1[nH]c(-c2ccc(O)cc2)cc1-c1ccccc1)NO [Example 2, N-(6-(hydroxyamino)-6-oxohexyl)-5-(4-hydroxyphenyl)-3-phenyl-1H-pyrrole-2-carboxamide]	21.3	162	20.1	153	32.9	250	18	52.1	396
O=C(CCCCCNC(=O)c1[nH]c(-c2ccsc2)cc1-c1ccc(O)cc1)NO [Example 3, N-(5-(hydroxycarbamoyl)pentyl)-3-(4-hydroxyphenyl)-5-(3-thienyl)-1H-pyrrole-2-carboxamide]	–	975	–	438	–	441	46	–	1270

Further lines, results first:

Selectivity against HDAC6 (IC50 HDACx/IC50 HDAC6) HDAC8 [1]	IC50 [1] [nM]	Selectivity against HDAC6 (IC50 HDACx/IC50 HDAC6) HDAC1 [2]	IC50 [2] [nM]	Selectivity against HDAC6 (IC50 HDACx/IC50 HDAC6) HDAC3 [3]	IC50 [3] [nM]	IC50 [4] [nM]	Selectivity against HDAC6 (IC50 HDACx/IC50 HDAC6) HDAC2 [5]	IC50 [5] [nM]	SMILES
–	278	–	19	–	20	1.6	–	56	O=C(CCCCCNC(=O)c1[nH]c(-c2ccc(O)cc2)cc1-c1ccoc1)NO [Example 5, 3-(3-furyl)-N-(5-(hydroxycarbamoyl)pentyl)-5-(4-hydroxy-phenyl)-1H-pyrrole-2-carboxamide]
–	591	–	353	–	341	33	–	864	O=C(CCCCCNC(=O)c1[nH]c(-c2ccoc2)cc1-c1ccc(O)cc1)NO [Example 4, 5-(3-furyl)-N-(5-(Hydroxycarbamoyl)pentyl)-3-(4-hydroxy-phenyl)-1H-pyrrole-2-carboxamide]
–	104	–	49	–	71	7.3	–	203	O=C(CCCCCNC(=O)c1[nH]c(-c2ccc(O)cc2)cc1-c1ccsc1)NO [Example 6, N-(5-(hydroxycarbamoyl)pentyl)-5-(4-hydroxyphenyl)-3-(3-thienyl)-1H-pyrrole-2-carboxamide]
